Laboratory results: patent publication US8952024B2, “Herbicidal pyrimidone derivatives” (E I du Pont de Nemours and Company, priority 2009, dated 2015)

How the values were obtained:
Type in all cases: in vivo
[1] = test system: barnyardgrass (Echinochloa crus-galli); assay: Test A pre-/postemergence plant response
Text: (§1) Seeds of barnyardgrass (Echinochloa crus-galli), large crabgrass (Digitaria sanguinalis), giant foxtail (Setaria faberii), morningglory (Ipomoea spp.), pigweed (Amaranthus retroflexus), velvetleaf (Abutilon theophrasti), wheat (Triticum aestivum) and corn (Zea mays) were planted into a blend of loam soil and sand and treated preemergence with a directed soil spray using test chemicals formulated in a non-phytotoxic solvent mixture which included a surfactant. At the same time these species were also treated with postemergence applications of test compounds formulated in the same manner.
(§2) Plants ranged in height from two to ten cm and were in the one- to two-leaf stage for the postemergence treatment. Treated plants and untreated controls were maintained in a greenhouse for approximately ten days, after which time all treated plants were compared to untreated controls and visually evaluated for injury. Plant response ratings, summarized in Table A, are based on a 0 to 100 scale where 0 is no effect and 100 is complete control. A dash (-) response means no test result.

[2] = test system: corn (Zea mays); assay: Test A pre-/postemergence plant response
Text: as §1, §2

[3] = test system: giant foxtail (Setaria faberii); assay: Test A pre-/postemergence plant response
Text: as §1, §2

[4] = test system: large crabgrass (Digitaria sanguinalis); assay: Test A pre-/postemergence plant response
Text: as §1, §2

[5] = test system: morningglory (Ipomoea spp.); assay: Test A pre-/postemergence plant response
Text: as §1, §2

[6] = test system: pigweed (Amaranthus retroflexus); assay: Test A pre-/postemergence plant response
Text: as §1, §2

[7] = test system: velvetleaf (Abutilon theophrasti); assay: Test A pre-/postemergence plant response
Text: as §1, §2

[8] = test system: wheat (Triticum aestivum); assay: Test A pre-/postemergence plant response
Text: as §1, §2

[9] = test system: barnyardgrass (Echinochloa crus-galli); assay: Test B flooded paddy test; details: for Plant response rating, Barnyardgrass: Flood (flooded paddy test), 13 to 15 days
Text: (§3) Plant species in the flooded paddy test consisted of rice (Oryza sativa), umbrella sedge (Cyperus difformis), ducksalad (Heteranthera limosa) and barnyardgrass (Echinochloa crus-galli) grown to the 2-leaf stage for testing. At the time of treatment, test pots were flooded with water to 3 cm above the soil surface, treated by application of test compounds directly to the paddy water, and then maintained at that water depth for the duration of the test.
(§4) Treated plants and controls were maintained in a greenhouse for 13 to 15 days, after which time all treated plants were visually evaluated and compared to controls. Plant response ratings, summarized in Table B, are based on a scale of 0 to 100 where 0 is no effect and 100 is complete control. A dash (-) response means no test result.

[10] = test system: ducksalad (Heteranthera limosa); assay: Test B flooded paddy test; details: for Plant response rating, Ducksalad: Flood (flooded paddy test), 13 to 15 days
Text: as §3, §4

[11] = test system: rice (Oryza sativa); assay: Test B flooded paddy test; details: for Plant response rating, Rice: Flood (flooded paddy test), 13 to 15 days
Text: as §3, §4

[12] = test system: umbrella sedge (Cyperus difformis); assay: Test B flooded paddy test; details: for Plant response rating, Sedge, Umbrella: Flood (flooded paddy test), 13 to 15 days
Text: as §3, §4

[13] = Postemergence, 125 g ai/ha, 0 to 100 scale where 0 is no effect and 100 is complete control
[14] = Postemergence, 500 g ai/ha, visual injury, 0 to 100 scale (0 no effect, 100 complete control), approx. ten days
[15] = Preemergence, 125 g ai/ha, 0 to 100 scale, 0 = no effect, 100 = complete control
[16] = Preemergence, 500 g ai/ha, 0 to 100 scale, 0 = no effect, 100 = complete control
[17] = 125 g ai/ha, scale 0 to 100, 0 is no effect, 100 is complete control
[18] = Flood, 31 g ai/ha, scale 0 to 100 (0 no effect, 100 complete control)
[19] = Postemergence, 125 g ai/ha, visual injury, 0 to 100 scale (0 no effect, 100 complete control), approx. ten days
[20] = Postemergence, 500 g ai/ha, 0 to 100 scale, 0 = no effect, 100 = complete control, approx. ten days
[21] = Preemergence, 500 g ai/ha, visual injury, 0 to 100 scale (0 no effect, 100 complete control), approx. ten days
[22] = 250 g ai/ha, flooded paddy test, visual rating on 0 to 100 scale (0 no effect, 100 complete control) after 13 to 15 days
[23] = 31 g ai/ha, scale of 0 to 100 where 0 is no effect and 100 is complete control
[24] = 62 g ai/ha, scale 0 to 100, 0 is no effect, 100 is complete control

## O=C1CCCC(O)=C1C(=O)c1cnc(-c2ccccc2)n(C2CC[S+]([O-])CC2)c1=O (mixture of isomers) [Compound 168, 5-[(2-hydroxy-6-oxo-1-cyclohexen-1-yl)carbonyl]-2-phenyl-3-(cis/trans-tetrahydro-1-oxido-2H-thiopyran-4-yl)-4(3H)-pyrimidinone]
[1]; [13]
  Plant response rating, Barnyardgrass: 30
[1]; [14]
  Barnyardgrass plant response rating: 100
[1]; [15]
  Plant response rating, Barnyardgrass: 0
[1]; [16]
  Plant response rating, Barnyardgrass: 20
[2]; [13]
  Plant response rating, Corn: 20
[2]; [14]
  Corn plant response rating: 30
[2]; [15]
  Plant response rating, Corn: 0
[2]; [16]
  Plant response rating, Corn: 0
[3]; [13]
  Plant response rating, Foxtail, Giant: 50
[3]; [14]
  Foxtail, Giant plant response rating: 90
[3]; [15]
  Plant response rating, Foxtail, Giant: 10
[3]; [16]
  Plant response rating, Foxtail, Giant: 70
[4]; [13]
  Plant response rating, Crabgrass, Large: 50
[4]; [14]
  Crabgrass, Large plant response rating: 90
[4]; [15]
  Plant response rating, Crabgrass, Large: 30
[4]; [16]
  Plant response rating, Crabgrass, Large: 80
[5]; [13]
  Plant response rating, Morningglory: 100
[5]; [14]
  Morningglory plant response rating: 100
[5]; [15]
  Plant response rating, Morningglory: 0
[5]; [16]
  Plant response rating, Morningglory: 70
[6]; [13]
  Plant response rating, Pigweed: 100
[6]; [14]
  Pigweed plant response rating: 100
[6]; [15]
  Plant response rating, Pigweed: 10
[6]; [16]
  Plant response rating, Pigweed: 50
[7]; [13]
  Plant response rating, Velvetleaf: 100
[7]; [14]
  Velvetleaf plant response rating: 100
[7]; [15]
  Plant response rating, Velvetleaf: 0
[7]; [16]
  Plant response rating, Velvetleaf: 60
[8]; [13]
  Plant response rating, Wheat: 0
[8]; [14]
  Wheat plant response rating: 50
[8]; [15]
  Plant response rating, Wheat: 0
[8]; [16]
  Plant response rating, Wheat: 0
[9]; [17]
  Plant response rating, Barnyardgrass: 0
[9]; [18]
  Barnyardgrass plant response rating: 0
[10]; [17]
  Plant response rating, Ducksalad: 30
[10]; [18]
  Ducksalad plant response rating: 0
[11]; [17]
  Plant response rating, Rice: 0
[11]; [18]
  Rice plant response rating: 0
[12]; [17]
  Plant response rating, Sedge, Umbrella: 20
[12]; [18]
  Sedge, Umbrella plant response rating: 0

## CCn1ncc(C(=O)c2cnc(-c3ccccc3)n(-c3ccccc3)c2=O)c1OS(=O)(=O)c1ccc(C)cc1 [Compound 16]
[1]; [19]
  Barnyardgrass plant response rating: 20
[1]; [20]
  Plant response rating, Barnyardgrass: 60
[1]; [15]
  Plant response rating, Barnyardgrass: 0
[1]; [21]
  Plant response rating, Barnyardgrass: 70
[2]; [19]
  Corn plant response rating: 0
[2]; [20]
  Plant response rating, Corn: 20
[2]; [15]
  Plant response rating, Corn: 0
[2]; [21]
  Plant response rating, Corn: 20
[3]; [19]
  Foxtail, Giant plant response rating: 30
[3]; [20]
  Plant response rating, Foxtail, Giant: 70
[3]; [15]
  Plant response rating, Foxtail, Giant: 30
[3]; [21]
  Plant response rating, Foxtail, Giant: 70
[4]; [19]
  Crabgrass, Large plant response rating: 10
[4]; [20]
  Plant response rating, Crabgrass, Large: 40
[4]; [15]
  Plant response rating, Crabgrass, Large: 40
[4]; [21]
  Plant response rating, Crabgrass, Large: 70
[5]; [19]
  Morningglory plant response rating: 10
[5]; [20]
  Plant response rating, Morningglory: 20
[5]; [15]
  Plant response rating, Morningglory: 0
[5]; [21]
  Plant response rating, Morningglory: 0
[6]; [19]
  Pigweed plant response rating: 50
[6]; [20]
  Plant response rating, Pigweed: 70
[6]; [15]
  Plant response rating, Pigweed: 30
[6]; [21]
  Plant response rating, Pigweed: 50
[7]; [19]
  Velvetleaf plant response rating: 70
[7]; [20]
  Plant response rating, Velvetleaf: 100
[7]; [15]
  Plant response rating, Velvetleaf: 0
[7]; [21]
  Plant response rating, Velvetleaf: 40
[8]; [19]
  Wheat plant response rating: 0
[8]; [20]
  Plant response rating, Wheat: 10
[8]; [15]
  Plant response rating, Wheat: 0
[8]; [21]
  Plant response rating, Wheat: 0
[9]; [22]
  Plant response rating, Flood, Barnyardgrass: 10
[9]; [23]
  Plant response rating, Barnyardgrass: 0
[9]; [24]
  Plant response rating, Barnyardgrass: 0
[9]; [17]
  Plant response rating, Barnyardgrass: 0
[10]; [22]
  Plant response rating, Flood, Ducksalad: 75
[10]; [23]
  Plant response rating, Ducksalad: 0
[10]; [24]
  Plant response rating, Ducksalad: 40
[10]; [17]
  Plant response rating, Ducksalad: 75
[11]; [22]
  Plant response rating, Flood, Rice: 10
[11]; [23]
  Plant response rating, Rice: 0
[11]; [24]
  Plant response rating, Rice: 0
[11]; [17]
  Plant response rating, Rice: 0
[12]; [22]
  Plant response rating, Flood, Sedge, Umbrella: 50
[12]; [23]
  Plant response rating, Sedge, Umbrella: 0
[12]; [24]
  Plant response rating, Sedge, Umbrella: 0
[12]; [17]
  Plant response rating, Sedge, Umbrella: 40

## Cc1ccc(-n2c(-c3cccc(F)c3)ncc(C(=O)C3=C(O)CCCC3=O)c2=O)cc1 [Compound 202]
[1]; [13]
  Plant response rating, Barnyardgrass: 90
[1]; [14]
  Barnyardgrass plant response rating: 100
[1]; [15]
  Plant response rating, Barnyardgrass: 20
[1]; [16]
  Plant response rating, Barnyardgrass: 100
[2]; [13]
  Plant response rating, Corn: 10
[2]; [14]
  Corn plant response rating: 30
[2]; [15]
  Plant response rating, Corn: 20
[2]; [16]
  Plant response rating, Corn: 40
[3]; [13]
  Plant response rating, Foxtail, Giant: 80
[3]; [14]
  Foxtail, Giant plant response rating: 100
[3]; [15]
  Plant response rating, Foxtail, Giant: 50
[3]; [16]
  Plant response rating, Foxtail, Giant: 100
[4]; [13]
  Plant response rating, Crabgrass, Large: 70
[4]; [14]
  Crabgrass, Large plant response rating: 100
[4]; [15]
  Plant response rating, Crabgrass, Large: 50
[4]; [16]
  Plant response rating, Crabgrass, Large: 100
[5]; [13]
  Plant response rating, Morningglory: 100
[5]; [14]
  Morningglory plant response rating: 100
[5]; [15]
  Plant response rating, Morningglory: 0
[5]; [16]
  Plant response rating, Morningglory: 100
[6]; [13]
  Plant response rating, Pigweed: 100
[6]; [14]
  Pigweed plant response rating: 100
[6]; [15]
  Plant response rating, Pigweed: 90
[6]; [16]
  Plant response rating, Pigweed: 100
[7]; [13]
  Plant response rating, Velvetleaf: 100
[7]; [14]
  Velvetleaf plant response rating: 100
[7]; [15]
  Plant response rating, Velvetleaf: 70
[7]; [16]
  Plant response rating, Velvetleaf: 100
[8]; [13]
  Plant response rating, Wheat: 20
[8]; [14]
  Wheat plant response rating: 50
[8]; [15]
  Plant response rating, Wheat: 0
[8]; [16]
  Plant response rating, Wheat: 40

## O=C1CCCC(O)=C1C(=O)c1cnc(-c2cc(F)c(F)c(F)c2)n(C2CCCCC2)c1=O [Compound 205]
[1]; [13]
  Plant response rating, Barnyardgrass: 90
[1]; [14]
  Barnyardgrass plant response rating: 100
[1]; [15]
  Plant response rating, Barnyardgrass: 0
[1]; [16]
  Plant response rating, Barnyardgrass: 10
[2]; [13]
  Plant response rating, Corn: 0
[2]; [14]
  Corn plant response rating: 20
[2]; [15]
  Plant response rating, Corn: 0
[2]; [16]
  Plant response rating, Corn: 0
[3]; [13]
  Plant response rating, Foxtail, Giant: 40
[3]; [14]
  Foxtail, Giant plant response rating: 90
[3]; [15]
  Plant response rating, Foxtail, Giant: 10
[3]; [16]
  Plant response rating, Foxtail, Giant: 80
[4]; [13]
  Plant response rating, Crabgrass, Large: 60
[4]; [14]
  Crabgrass, Large plant response rating: 90
[4]; [15]
  Plant response rating, Crabgrass, Large: 20
[4]; [16]
  Plant response rating, Crabgrass, Large: 90
[5]; [13]
  Plant response rating, Morningglory: 100
[5]; [14]
  Morningglory plant response rating: 100
[5]; [15]
  Plant response rating, Morningglory: 0
[5]; [16]
  Plant response rating, Morningglory: 60
[6]; [13]
  Plant response rating, Pigweed: 90
[6]; [14]
  Pigweed plant response rating: 100
[6]; [15]
  Plant response rating, Pigweed: 10
[6]; [16]
  Plant response rating, Pigweed: 90
[7]; [13]
  Plant response rating, Velvetleaf: 100
[7]; [14]
  Velvetleaf plant response rating: 100
[7]; [15]
  Plant response rating, Velvetleaf: 10
[7]; [16]
  Plant response rating, Velvetleaf: 80
[8]; [13]
  Plant response rating, Wheat: 0
[8]; [14]
  Wheat plant response rating: 10
[8]; [15]
  Plant response rating, Wheat: 0
[8]; [16]
  Plant response rating, Wheat: 0
